Laboratory results published in US20090134028A1, “Method of Estimating Effect of Test Chemical on Living Organisms” (Chemicals Evaluation and Research Institute, priority 2005, published 2009).
Where two headings read alike, the source gives them in different places.

Key:
[1] = cited from earlier work
[2] = Prediction of liver cell hypertrophy using SVM from post-translational modification data; parameters: species or system rat
[3] = system: liver cell
[4] = SVM prediction of liver cell hypertrophy, training set, top-ranked 20 sets of post-translational modification data
[5] = known carcinogenicity of chemical, Tables 1 to 3
[6] = known carcinogenicity of chemical, Tables 8 to 11

Compound	Carcinogenicity ([1]; in vivo)	Finding of hepatocyte hypertrpy ([3]; rat, in vivo)	pathology of liver cell hypertrophy in the liver ([3]; rat, in vivo)	further results
CCSCCC(N)C(=O)O (racemic) [D,L-ethionin]	+			
CC(C)[C@@H]1CC[C@@H](C)C[C@H]1O (racemic) [DL-menthol]	−	+	pathology of liver cell hypertrophy was seen	Prediction result [2]: +1 CORRECT
Clc1ccc(Cl)cc1 [1,4-Dichlorobenzene]	+	+	pathology of liver cell hypertrophy was seen	Prediction result [2]: +1 CORRECT
C1COCCO1 [1,4-Dioxane]		−	no pathology of liver cell hypertrophy was seen	Prediction result [2]: −1 CORRECT
CC(O)CCl (centres unmarked) [1-Chloro-2-propanol]	−			
O=[N+]([O-])c1cccc2ccccc12 [1-Nitronaphthalene]	−			
Cc1ccc(N)cc1N [2,4-Diaminotoluene]	+	−	no pathology of liver cell hypertrophy was seen	Prediction result [2]: −1 CORRECT
Cc1cc(N)ccc1N.O=S(=O)(O)O [2,5-Toluenediamine sulfate]	−			
Cc1c(N)cccc1N [2,6-Diaminotoluene]		−	no pathology of liver cell hypertrophy was seen	Prediction result [2, 4]: −1 CORRECT
Cl.ClCc1ccccn1 [2-(Chloromethyl)pyridine hydrochloride]		−	no pathology of liver cell hypertrophy was seen	Carcinogenicity [1, 5]: −; Carcinogenicity [1, 6]: −; Prediction result [2]: −1 CORRECT
Cn1c(N)nc2ncc(-c3ccccc3)cc21 [2-Amino-1-methyl-6-phenylimidazo[4,5-b]-pyridine]	+			
Cc1cnc2ccc3c(nc(N)n3C)c2n1 [2-Amino-3,8-dimethylimidazo[4,5-f]-quinoxaline]	+			
Nc1ccc(N)c(Cl)c1.O=S(=O)(O)O [2-Chloro-p-phenylenediamine sulfate]	−			
CC(C)[N+](=O)[O-] [2-Nitropropane]		−	no pathology of liver cell hypertrophy was seen	Prediction result [2]: −1 CORRECT
Cc1ccc(N)cc1Cl [3-Chloro-p-toluidine]	−			
Cc1ccc2cc3c(ccc4ccccc43)c3c2c1CC3 [3-Methylcholantrene]	+			
CC(=O)Nc1ccc(C(=O)CCl)cc1 [4-(Chloroacetyl)acetanilide]	−			
CN(C)c1ccc(N=Nc2ccccc2)cc1 [4-Dimethylaminoaxobenzene]	+			
Nc1ccc([N+](=O)[O-])cc1N [4-Nitro-o-phenylenediamine]	−	−	no pathology of liver cell hypertrophy was seen	Prediction result [2]: −1 CORRECT
Nc1cc([N+](=O)[O-])ccc1C(=O)O [4-Nitroanthranylic acid]	−			

Compound	Carcinogenicity ([1]; in vivo)	Finding of hepatocyte hypertrpy ([3]; rat, in vivo)	pathology of liver cell hypertrophy in the liver ([3]; rat, in vivo)	further results
Cc1c2ccccc2c(C)c2c1ccc1ccccc12 [7,12-Dimethylbenzanthracene]	+			
Oc1cccc2cccnc12 [8-Hydrxyquinoline]	−	−	no pathology of liver cell hypertrophy was seen	Prediction result [2]: −1 CORRECT
CC(N)=O [Acetamide]	+			
ClC1=C(Cl)C2(Cl)C3C4C=CC(C4)C3C1(Cl)C2(Cl)Cl (centres unmarked) [Aldrin]	+	−	no pathology of liver cell hypertrophy was seen	Prediction result [2]: −1 CORRECT
CC(=O)Oc1ccccc1C(=O)O [Aspirin]				Carcinogenicity [1, 5]: −; Carcinogenicity [1, 6]: −
c1ccc2cc3c(ccc4ccccc43)cc2c1 [Benz(a)anthracene]	+			
O=C(c1ccccc1)C(O)c1ccccc1 (centres unmarked) [Benzoin]	−			
COc1ccc(O)c(C(C)(C)C)c1 [Butylated hydroxyanisole]	+	−	no pathology of liver cell hypertrophy was seen	Prediction result [2]: −1 CORRECT
O=C1CCCCCN1 [Caprolactam]				Carcinogenicity [1, 5]: −; Carcinogenicity [1, 6]: −
ClC(Cl)(Cl)Cl [Carbon tetrachloride]	+	−	no pathology of liver cell hypertrophy was seen	Prediction result [2]: −1 CORRECT
O=C(O)C1C(C(=O)O)C2(Cl)C(Cl)=C(Cl)C1(Cl)C2(Cl)Cl (centres unmarked) [Chlorendic acid]	+			
ClC(Cl)Cl [Chloroform]	+			
CCOC(=O)C(C)(C)Oc1ccc(Cl)cc1 [Clofibrate]		+	pathology of liver cell hypertrophy was seen	Carcinogenicity [1, 5]: +; Carcinogenicity [1, 6]: +
OC[C@@H](O)[C@@H](O)[C@H](O)[C@H](O)CO [D-mannitol]		−	no pathology of liver cell hypertrophy was seen	Carcinogenicity [1, 5]: −; Carcinogenicity [1, 6]: −; Prediction result [2, 4]: −1 CORRECT
CCCCC(CC)COC(=O)CCCCC(=O)OCC(CC)CCCC (centres unmarked) [Di(2-ethylhexyl)adipate]		−	no pathology of liver cell hypertrophy was seen	Prediction result [2]: 1
CCCCC(CC)COC(=O)c1ccccc1C(=O)OCC(CC)CCCC (centres unmarked) [Di(2-ethylhexyl)phthalate]	+	+	pathology of liver cell hypertrophy was seen	Prediction result [2, 4]: −1 (−1 and 1 indicates the incorrectly predicted compounds)
CCN(CC)N=O [Diethylnitrosamine]	+	−	no pathology of liver cell hypertrophy was seen	Prediction result [2]: −1 CORRECT
CC/C(=C(/CC)c1ccc(O)cc1)c1ccc(O)cc1 [Diethylstilbestrol]				Carcinogenicity [1, 5]: +; Carcinogenicity [1, 6]: +
C#C[C@]1(O)CC[C@H]2[C@@H]3CCc4cc(O)ccc4[C@H]3CC[C@@]21C [Ethinylestradiol]		−	no pathology of liver cell hypertrophy was seen	Carcinogenicity [1, 5]: +; Carcinogenicity [1, 6]: +
c1ccoc1 [Furan]	+	+	pathology of liver cell hypertrophy was seen	Prediction result [2]: −1

Compound	Carcinogenicity ([1]; in vivo)	Finding of hepatocyte hypertrpy ([3]; rat, in vivo)	pathology of liver cell hypertrophy in the liver ([3]; rat, in vivo)	further results
O=CCCCC=O [Glutaraldehyde]				Carcinogenicity [1, 5]: −; Carcinogenicity [1, 6]: −
Clc1c(Cl)c(Cl)c(Cl)c(Cl)c1Cl [Hexachlorobenzene]		+		
IC(I)I [Iodoform]	−	+		Prediction result [2, 4]: +1 CORRECT
O=C1O[C@H]([C@@H](O)CO)C(O)=C1O [L-ascorbic acid]		−		Prediction result [2, 4]: −1 CORRECT
COC(N)=O [Methyl carbamate]				Prediction result [2, 4]: −1 CORRECT; pathology of liver cell hypertrophy in the liver ([3]; after 28 days repeated administration): no pathology of liver cell hypertrophy was seen; Finding of hepatocyte hypertrpy ([3]; rat liver after 28 days repeated administration): −
CCN(N=O)C(N)=O [N-ethy-N-nitrosourea]	+			
CN(C)N=O [N-nitrsodimethylamine]	+			
ClC(Cl)C(Cl)(Cl)Cl [Pentachloroethane]	+			
CCC1(c2ccccc2)C(=O)NC(=O)NC1=O [Phenobarbital]		+	pathology of liver cell hypertrophy was seen	
O=C1NC(=O)C(c2ccccc2)(c2ccccc2)N1 [Phenytoin sodium]				Carcinogenicity [1, 5]: +; Carcinogenicity [1, 6]: +
NC(=O)c1ccccc1C(N)=O [Phthalamide]				Carcinogenicity [1, 5]: −; Carcinogenicity [1, 6]: −
c1ccc2ncccc2c1 [Quinoline]	+	−	no pathology of liver cell hypertrophy was seen	Prediction result [2, 4]: −1 CORRECT
C=CCc1ccc2c(c1)OCO2 [Safrole]	+	+	pathology of liver cell hypertrophy was seen	Prediction result [2]: +1 CORRECT
ClC(Cl)=C(Cl)Cl [Tetrachloroethylene]	+			
CC(=N)S [Thioacetamide]	+			
O=C(O)C(Cl)(Cl)Cl [Trichloroacetic acid]	+			
ClC=C(Cl)Cl [Trichloroethylene]	+	−	no pathology of liver cell hypertrophy was seen	Prediction result [2]: −1 CORRECT
CCOC(N)=O [Urethane]				Carcinogenicity [1, 5]: +; Carcinogenicity [1, 6]: +
Cl.Cl.Nc1ccc(N)cc1 [p-Phenylenediamine dihydrochloride]	−			
Cl[C@H]1[C@H](Cl)[C@H](Cl)[C@@H](Cl)[C@H](Cl)[C@H]1Cl [α-Hexachlorocyclohexane]	+	+	pathology of liver cell hypertrophy was seen	Prediction result [2]: +1 CORRECT
